This assay concerns the target T1, human CTPS1 (Homo sapiens, UniProt P17812).
T1 sequence (P17812 1-591): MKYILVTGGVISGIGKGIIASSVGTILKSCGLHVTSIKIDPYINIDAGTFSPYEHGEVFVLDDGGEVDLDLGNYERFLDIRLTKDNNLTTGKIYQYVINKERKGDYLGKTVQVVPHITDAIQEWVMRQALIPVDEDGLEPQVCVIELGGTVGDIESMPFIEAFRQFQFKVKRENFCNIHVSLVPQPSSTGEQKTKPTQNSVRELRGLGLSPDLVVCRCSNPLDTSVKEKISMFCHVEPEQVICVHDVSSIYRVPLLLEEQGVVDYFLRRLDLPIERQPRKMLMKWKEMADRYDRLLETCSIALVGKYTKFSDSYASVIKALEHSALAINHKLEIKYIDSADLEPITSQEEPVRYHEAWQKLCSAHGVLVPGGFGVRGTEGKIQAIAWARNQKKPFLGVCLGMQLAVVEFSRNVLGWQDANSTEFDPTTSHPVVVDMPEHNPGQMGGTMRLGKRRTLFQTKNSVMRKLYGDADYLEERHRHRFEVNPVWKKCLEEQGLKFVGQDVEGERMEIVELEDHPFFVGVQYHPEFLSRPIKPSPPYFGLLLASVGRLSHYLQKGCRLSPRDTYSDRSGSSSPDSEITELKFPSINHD
As to the kind of experiment: ADP-Glo assay, human CTPS1 enzyme inhibition. Format: biochemical. Conditions: read-out: ADP-Glo_WT_hCTPS1—25 nM_IC50 (IC50). The procedure:
The enzyme inhibitory activities of the compounds of the invention against the target of interest were determined using the ADP-Glo™ assay (Promega). Assays for human CTPS1 and CTPS2 were performed in 1× assay buffer containing 50 mM HEPES (Life Technologies), 10 mM Mg2+, 5 mM KCl, 2 mM DTT, 0.01% F-127, pH to 7.4 accordingly. All reagents are from Sigma-Aldrich, unless specified otherwise. Purified human full length active N-terminal FLAG-8×HIS-TEV tagged CTPS1 (UniprotKB—P17812, […]-CTPS1[1-591]) was generated using a mammalian expression system at Viva Biotech (Shanghai) Ltd.
Purified human CTPS1 protein was prepared in 1× assay buffer to the final working protein concentration required for the reaction. A 2.5 μL volume per well of human CTPS 1 protein was mixed with 0.1 μL per well of test compound dissolved in DMSO and pre-incubated at 25 degrees C. for 10 minutes. 2.5 μL per well of the reaction precursors ATP (UltraPure ATP from ADP-Glo™ kit) and UTP were then added and pre-incubated for an additional 10 minutes at 25 degrees C. Finally, the reaction was initiated by the addition of 5 μL of the reaction precursors L-glutamine and GTP. The final concentration of all reaction components in the assay: ATP (120 μM), UTP (160 μM), GTP (60 μM), L-Glutamine (100 μM), DMSO (1%), hCTPS1 (25 nM). This mixture was incubated for an appropriate amount of time within the determined linear phase of the reaction at 25 degrees C. under sealed plate conditions with constant agitation at 500 revolutions per minute (rpm). ADP-Glo™ reagent was added for 60 minutes (10 μL per well) and subsequently ADP-Glo™ development reagent was added for 60 minutes (20 μL per well) prior to signal detection in a microplate reader (Envision Multilabel Reader, Perkin Elmer). Following each reagent addition over the course of the assay, assay plates were pulse centrifuged for 1 minute at 1000 rpm.
The enzyme converts ATP to ADP and the ADP-Glo™ reagent subsequently depletes any remaining ATP in the reaction system. The ADP-Glo™ detection reagents converts the ADP that has been produced by the enzyme back into ATP, which is then utilized as a substrate together with luciferin for the enzyme luciferase. Light generated by this chemiluminescent reaction is quantified and is directly proportional to the amount of ADP produced by the CTPS1 enzyme reaction. […]

Setting [1] is: wild-type human CTPS1, 25 nM enzyme, ADP-Glo.
Where [2] appears, read: wild-type human CTPS1 25 nM, ATP 120 μM, UTP 160 μM, GTP 60 μM, L-glutamine 100 μM, 25 degrees C.

The source of these data is patent publication US20250270200A1, “CTPS1 INHIBITORS AND USES THEREOF” (Nimbus Clotho, Inc., priority 2022, published 2025).

Where two headings read alike, the source gives them in different places. A value given as a limit tells only on which side of the number the result lay.

In general, IC50 refers to the concentration that inhibits the measured activity by half.

Take `CCOc1cncc(-c2cnc(C(=O)N[C@H](c3cc(NS(=O)(=O)C4CC4)ccn3)[C@H](C)OC)s2)n1` (single isomer, unassigned) [I-47]: under setting [1], the IC50 lay in the range of 5 to 25 nM.
In the case of `CCOc1cncc(-c2cnc(C(=O)N[C@@]3(c4cc(NS(=O)(=O)C5CC5)ccn4)CCOC3)s2)n1` (single isomer, unassigned) [I-71], the IC50 under setting [1] was in the range of 5 to 25 nM.
Still for that read-out and setting: as for `CCOc1cncc(-c2cnc(C(=O)N[C@]3(c4cc(NS(=O)(=O)C5CC5)ccn4)CCOC3)s2)n1` (single isomer, unassigned) [I-72], the figure is 5 to 25 nM.
On the same count and under the same terms, the figure for `CCOc1cncc(-c2cnc(C(=O)NC(C[C@@H]3COCCN3C)c3cc(NS(=O)(=O)C4CC4)ccn3)s2)n1` (single isomer, unassigned) [I-103] is above 100 nM.
Still for that read-out and setting: the figure for `CCOc1cncc(-c2cnc(C(=O)NC(c3cc(NS(=O)(=O)C4CC4)ccn3)C3CN(C)CCO3)s2)n1` (single isomer, unassigned) [I-105, N-((4-(cyclopropanesulfonamido)pyridin-2-yl)(4-methylmorpholin-2-yl)methyl)-5-(6-ethoxypyrazin-2-yl)thiazole-2-carboxamide] is 5 to 25 nM; for `CCOc1cncc(-c2cnc(C(=O)NC(c3cc(NS(=O)(=O)C4CC4)ccn3)C3CN(C)CCO3)s2)n1` (single isomer, unassigned) [I-106, N-((4-(cyclopropanesulfonamido)pyridin-2-yl)(4-methylmorpholin-2-yl)methyl)-5-(6-ethoxypyrazin-2-yl)thiazole-2-carboxamide] it is 5 to 25 nM; for `CCOc1cncc(-c2cnc(C(=O)N[C@@H](CN3CCOCC3)c3cc(NS(=O)(=O)C4CC4)ncn3)s2)n1` (single isomer, unassigned) [I-247] it is 5 to 25 nM.
Consider `CCOc1cncc(-c2cnc(C(=O)N[C@H](c3cc(NS(=O)(=O)C4CC4)ncn3)C3CCOCC3)s2)n1` (single isomer, unassigned) [I-254], for which, under setting [1], the IC50 was 5 to 25 nM.
Still for that read-out and setting: as for `CCOc1cncc(-c2cnc(C(=O)N[C@@H](c3cc(NS(=O)(=O)C4CC4)ncn3)C3CCOCC3)s2)n1` (single isomer, unassigned) [I-255], the figure is 5 to 25 nM.
`COC[C@H](NC(=O)c1ncc(-c2cnn3ccc(Cl)cc23)s1)c1nccc(NS(=O)(=O)C2CC2)c1F` (single isomer, unassigned) [II-1]: the IC50 under setting [2] is 5 to 25 nM.
Same read-out and setting: as for `COC[C@@H](NC(=O)c1ncc(-c2cnn3ccc(Cl)cc23)s1)c1nccc(NS(=O)(=O)C2CC2)c1F` (single isomer, unassigned) [II-2], the figure is 5 to 25 nM.
On to `O=C(N[C@H](c1nccc(NS(=O)(=O)C2CC2)c1F)[C@H]1CCOC1)c1ncc(-c2cnn3ccc(Cl)cc23)s1` (single isomer, unassigned) [II-3], for which the half-inhibitory concentration (IC50) under setting [2] was in the range of 5 to 25 nM.
Same read-out and setting: as for `O=C(N[C@@H](c1nccc(NS(=O)(=O)C2CC2)c1F)[C@@H]1CCOC1)c1ncc(-c2cnn3ccc(Cl)cc23)s1` (single isomer, unassigned) [II-4], the figure is 5 to 25 nM; as for `O=C(N[C@@H](c1nccc(NS(=O)(=O)C2CC2)c1F)[C@H]1CCOC1)c1ncc(-c2cnn3ccc(Cl)cc23)s1` (single isomer, unassigned) [II-5], 5 to 25 nM; as for `O=C(N[C@H](c1nccc(NS(=O)(=O)C2CC2)c1F)[C@@H]1CCOC1)c1ncc(-c2cnn3ccc(Cl)cc23)s1` (single isomer, unassigned) [II-6], 5 to 25 nM.
On to `CCOc1cncc(-c2cnc(C(=O)N[C@@H](COC)c3cc(NS(=O)(=O)C4CC4)ncn3)s2)n1` (single isomer, unassigned) [II-7], for which, under setting [2], the IC50 lay within 5 to 25 nM.
For `CCOc1cncc(-c2cnc(C(=O)N[C@H](COC)c3cc(NS(=O)(=O)C4CC4)ncn3)s2)n1` (single isomer, unassigned) [II-8], under setting [2], the IC50 was in the range of 5 to 25 nM.
Same read-out and setting: the figure for `COC[C@H](NC(=O)c1ncc(-c2cnn3ccc(Cl)cc23)s1)c1nccc(NS(=O)(=O)C2CC2)n1` (single isomer, unassigned) [II-9] is 5 to 25 nM.
Same read-out and setting: as for `COC[C@@H](NC(=O)c1ncc(-c2cnn3ccc(Cl)cc23)s1)c1nccc(NS(=O)(=O)C2CC2)n1` (single isomer, unassigned) [II-10], the figure is 25 to 50 nM; as for `CCOc1cncc(-c2cnc(C(=O)N[C@@H](c3cccc(NS(=O)(=O)C(F)F)c3)[C@@H](C)CN3CCCCC3)s2)n1` (single isomer, unassigned) [II-11], 25 to 50 nM.
The same measure, in the same setting: the figure for `CCOc1cncc(-c2cnc(C(=O)N[C@@H](c3cccc(NS(=O)(=O)C(F)F)c3)[C@H](C)CN3CCCCC3)s2)n1` (single isomer, unassigned) [II-12] is 5 to 25 nM; for `CCOc1cncc(-c2cnc(C(=O)N[C@H](c3cccc(NS(=O)(=O)C(F)F)c3)[C@H](C)CN3CCCCC3)s2)n1` (single isomer, unassigned) [II-13] it is above 100 nM; for `CCOc1cncc(-c2cnc(C(=O)N[C@H](c3cccc(NS(=O)(=O)C(F)F)c3)[C@@H](C)CN3CCCCC3)s2)n1` (single isomer, unassigned) [II-14] it is 50 to 100 nM.
On to `O=C(N[C@H](c1cc(NS(=O)(=O)C2CC2)ccn1)C1CCOCC1)c1nnc(-c2cnn3ccc(Cl)cc23)s1` (single isomer, unassigned) [II-15], for which, under setting [2], the IC50 is 5 to 25 nM.
Same read-out and setting: as for `O=C(N[C@@H](c1cc(NS(=O)(=O)C2CC2)ccn1)C1CCOCC1)c1nnc(-c2cnn3ccc(Cl)cc23)s1` (single isomer, unassigned) [II-16], the figure is 5 to 25 nM; as for `CCOc1cncc(-c2cnc(C(=O)N[C@H](c3nccc(NS(=O)(=O)C4CC4)c3F)[C@H]3CCOC3)s2)n1` (single isomer, unassigned) [II-17], 5 to 25 nM; as for `CCOc1cncc(-c2cnc(C(=O)N[C@H](c3nccc(NS(=O)(=O)C4CC4)c3F)[C@@H]3CCOC3)s2)n1` (single isomer, unassigned) [II-18], 5 to 25 nM.
Same read-out and setting: as for `CCOc1cncc(-c2cnc(C(=O)N[C@@H](c3nccc(NS(=O)(=O)C4CC4)c3F)[C@@H]3CCOC3)s2)n1` (single isomer, unassigned) [II-19], the figure is 5 to 25 nM.
For the molecule `CCOc1cncc(-c2cnc(C(=O)N[C@@H](c3cc(NS(=O)(=O)C4CC4)ccn3)[C@H](C)CN3CCCCC3)s2)n1` (stereo in doubt) [I-51, N-((1R,2R)-1-(4-(cyclopropanesulfonamido)pyridin-2-yl)-2-methyl-3-(piperidin-1-yl)propyl)-5-(6-ethoxypyrazin-2-yl)thiazole-2-carboxamide], the IC50 under setting [1] lay within 5 to 25 nM.
For the molecule `CCOc1cncc(-c2cnc(C(=O)N[C@@H](c3cc(NS(=O)(=O)C4CC4)ccn3)[C@@H](C)CN3CCCCC3)s2)n1` (stereo in doubt) [I-52, N-((1R,2S)-1-(4-(cyclopropanesulfonamido)pyridin-2-yl)-2-methyl-3-(piperidin-1-yl)propyl)-5-(6-ethoxypyrazin-2-yl)thiazole-2-carboxamide], the IC50 under setting [1] lay within 50 to 100 nM.
On the same count and under the same terms, as for `CCOc1cncc(-c2cnc(C(=O)N[C@H](c3cc(NS(=O)(=O)C4CC4)ccn3)[C@H](C)CN3CCCCC3)s2)n1` (stereo in doubt) [I-53, N-((1S,2R)-1-(4-(cyclopropanesulfonamido)pyridin-2-yl)-2-methyl-3-(piperidin-1-yl)propyl)-5-(6-ethoxypyrazin-2-yl)thiazole-2-carboxamide], the figure is 5 to 25 nM.
